In US11026972B2, “Methods for generating macrophages with enhanced cancer phagocytosis” (Georgia State University Research Foundation, Inc., priority 2016, dated 2021):

B1: IL-10: phagocytic suppressive cytokine (protein, UniProt P22301 19-178, looked up)
Interleukin-10: SPGQGTQSENSCTHFPGNLPNMLRDLRDAFSRVKTFFQMKDQLDNLLLKESLLEDFKGYLGCQALSEMIQFYLEEVMPQAENQDPDIKAHVNSLGENLKTLRLRLRRCHRFLPCENKSKAVEQVKNAFNKLQEKGIYKAMSEFDIFINYIEAYMTMKIRN

Assays:
[1] = test system: SIRPα^−/− and CD47^−/− mice; assay: Acute anemia and splenomegaly in mice deficient of CD47-SIRPα-mediated inhibition under inflammatory conditions; assay type: in vivo, mouse; conditions: colitic SIRPα^−/− mice; 1% DSS, 10 days
Excerpt: FIGS. 1A-1K illustrate our assessment of acute anemia in mice deficient of CD47-SIRPα-mediated inhibition under inflammatory conditions. FIG. 1A includes a schematic drawing of a wild type (WT) and targeted allele of SIRPα (“SIRPα”) and data related to the generation of SIRPα “knock out” (KO) mice. […] Western blot (WB) analysis confirmed the depletion of SIRPα (˜120 kDa) protein in bone marrow leukocytes from SIRPα^−/− mice. FIG. 1B includes a photograph of intestinal tissue and a line graph charting the change in body weight of mice in which colitis had been induced by treatment with 1% or 2% DSS. […] FIGS. 1C and 1D include data related to acute anemia and splenomegaly developed in SIRPα^−/− mice with colitis. WT mice and SIRPα^−/− mice treated with DSS (2% DSS for WT and 1% DSS for SIRPα^−/−) for 10 days were analyzed for the presence of […] (FIG. 1C) and the content of hemoglobin in peripheral blood (FIG. 1D). FIG. 1E includes a panel of photomicrographs in which hematoxylin and eosin (H&E) was used to stain sections of spleens from WT and SIRPα^−/− mice treated with 2% and 1% DSS for 10 days. The bar graph of FIG. 1E illustrates the hemoglobin content in the spleens of WT and SIRPα^−/− mice treated with water or DSS. FIG. 1F is a pair of line graphs showing the time course over which anemia developed in SIRPα^−/− mice when colitis was induced with DSS and the levels of IL-17 in the serum over that same period of time. FIG. 1G is a diagram showing that IL-17 neutralization ameliorates anemia and splenomegaly in SIRPα^−/− mice with colitis. An anti-IL-17 antibody (10 μg, i.v.) was given on days 6 and 8 (arrows) during DSS-induction of colitis. FIG. 1H is a diagram showing that IL-17-containing colitic serum induces acute anemia in SIRPα^−/− mice. Serum samples collected from healthy (Ctl.) and colitic WT mice (2% DSS, 10 d) were administered to healthy SIRPα^−/− mice (i.v., 3×, arrows) with or without an anti-IL-17 antibody. FIGS. 1I and 1J are illustrative graphs showing that IL-17 directly induces acute anemia and splenomegaly in SIRPα^−/− mice and Cd47^−/− mice. Healthy mice were given recombinant IL-17 (10 μg/kg, i.v.) on days 1 and 3 (arrows, FIG. 1J); anemia and splenomegaly were analyzed on day 5 (FIG. 1I) or in a time course manner (FIG. 1J). FIG. 1K includes diagrams showing that acute anemia and splenomegaly in SIRPα^−/− and Cd47^−/− mice under zymosan-peritonitis (3×, every other day), IL-6 administration ([…], i.v.), LPS (0.25 mg/kg, i.p.), and CFA (1×, s.c.) administrations. Error bars are ±SEM **P<0.01, ***P<0.001 vs. control or the beginning time point. Data presented in each panel represent at least three independent experiments with n≥4, if applicable.
Hemoglobin assay: To assay blood hemoglobin, 10 μl of whole blood were obtained from the tail vein followed by lysis in 1 ml distilled water. After centrifugation (13,000 rpm, 30 min), the hemoglobin-containing supernatants were collected and measured for the optical density at the wavelength of 540 nm.
Animal inflammation models: To induce peritonitis, mice (6-8 wk, 20-22 g) were intraperitoneally injected with 0.5 mg zymosan A (Sigma) in 0.5 ml sterile PBS followed by euthanasia at 2, 4, 6 and 8 hours. […] The colitic condition was then assessed by observing diarrhea, measuring body weight loss, increases of inflammatory cytokines, the shortage of the large intestine and intestinal tissue analyses (after euthanasia). […]

[2] = test system: CFSE-labeled CD47^+ or CD47^− RBCs in recipient mice; assay: RBC adoptive transfer and in vivo clearance of CFSE-labeled RBCs; set-up: species or system mouse; conditions: SIRPα^−/− mice; 1% DSS for 8 d or directly injected with IL-17; 24 h
Excerpt: FIGS. 2A-2E includes data related to macrophage phagocytosis in vivo assessed by adoptive transfer experiments. FIGS. 2A-C are illustrative graphs showing clearance of adoptively transferred CD47-positive (Cd47^+) or CD47-negative (Cd47^−) RBC in recipient mice. […] Error bars are ±SEM. **P<0.01, ***P<0.001 vs. WT mice clearance of Cd47^+ RBCs. […] Mice treated with DSS (1% for SIRPα^−/− mice, 2% for WT and Cd47^−/− mice) for 8 d (d8) were transfused with CFSE-RBCs followed by determination of RBC clearance after 24 h. FACS data of Cd47^+ RBCs and Cd47^− RBCs in different mice at 30 min and 24 h after transfer were selectively shown. Total RBC phagocytosis was calculated based on the rates of CFSE-RBC clearance and the fact that SIRPα^−/− mice eliminate both Cd47^− RBC and Cd47^+ RBC, whereas WT mice and Cd47^−/− mice eliminate only Cd47^− RBCs. […] Mice treated once with IL-17 (10 μg/kg, i.v.) were transfused with CFSE-labeled Cd47^+ or Cd47^− RBCs a day later. Error bars are ±SEM. **P<0.01, ***P<0.001 vs. control or the initial time point. Data presented in each panel represent at least three independent experiments with n≥4, if applicable.
Adoptive transfer and in vivo clearance: CD47-expressing (CD47^+) RBC freshly collected from WT or SIRPα^−/− mice, and CD47-null (CD47^−) RBC collected from CD47^−/− mice were labeled with carboxyfluorescein succinimidyl ester (CFSE). After washing, about 1×10^9 RBC suspended in 200 μl sterile PBS were transfused into recipient mice by intravenous (i.v.) injection. Blood samples (5 μl) were then collected 30 min after the blood transfusion and the CFSE-labeled RBC in the circulation was assessed by FACS analyses. Blood samples (5 μl each) were then collected at later time points to assess the clearance of CFSE-labeled RBC as compared to that found at 30 min. For each sample, at least 50,000 RBC were examined by FACS. […] Clearance of CFSE-labeled cells in the circulation and the spleen were analyzed by FACS analyses of blood samples and splenocytes. […]

[3] = test system: splenic macrophages, PEMs and BMDMs; assay: Ex vivo macrophage phagocytosis toward RBCs and other self-cells after activation; assay type: cell-based, mouse; conditions: various concentrations of IL-10
Method: FIGS. 3A-3H include data related to our experiments assaying macrophage phagocytosis ex vivo. FIGS. 3A and 3B show macrophage phagocytosis of RBCs. Freshly isolated splenic macrophages (MØ) and peritoneal macrophages (PEM) and in vitro-derived BMDM (bone marrow-derived macrophages) were tested for phagocytosis toward CFSE-labeled Cd47^+ or Cd47^− RBCs. […] FIGS. 3F and 3G illustrate LPS and IL-17-activated PEM phagocytosis toward splenocytes (FIG. 3F), B16, and EL4 (FIG. 3G). Error bars are ±SEM. **P<0.01, ***P<0.001 vs. no treatment controls. […] PEM lavaged without (ctl.) or with Brewer thioglycollate (3%, i.p.) elicitation was tested. Error bars are ±SEM. ***P<0.001 vs. control PEM. Data presented in each panel represent at least three independent experiments with n≥4, if applicable.
FIGS. 4A-4E include data related to our experiments on macrophage phagocytic plasticity. FIG. 4A is a panel of illustrative line graphs showing that IL-10 inhibits macrophage phagocytosis toward “self.” PEMs were treated with LPS and activating cytokines along with various concentrations of IL-10 before testing their ability to phagocytose RBCs. FIG. 4B illustrates the phagocytic plasticity of WT red pulp macrophages. […] Treatments of cultured macrophages with LPS and IL-17 re-elicited their phagocytosis toward RBCs. […] Error bars are ±SEM. ***P<0.001 vs. freshly isolated splenic macrophages. FIG. 4D includes microscopic images of RBC phagocytosis by LPS- and IL-17-treated splenic macrophages. […] WT PEMs treated with LPS or IL-17 were further treated with Cd47^+ RBCs or Cd47-AP (10 min, 37° C.) followed by cell lysis, SIRPα immunoprecipitation, and WB detection of SIRPα phosphorylation (SIRPα^pY) and SHP-1 association. Data presented in each panel represent at least three independent experiments with n≥4, if applicable.
Ex vivo macrophage phagocytosis: Mouse spleens were harvested and minced in cold HBSS followed by passing through nylon meshes. The spleen cells in suspensions were collected by centrifugation followed by washing. After lysis of RBC, splenocytes were plated in cell culture dishes in DMEM with 10% FBS and cultured for 2 h followed by removal of non-adherent cells. The adherent cells, ˜70% being macrophages as determined by anti-F4/80 staining, were tested for phagocytosis. For phagocytosis of RBC or other tissue cells, targeted cells were labeled with CFSE prior to addition into the macrophage-containing wells. Macrophages and target cells, at a ratio of 1:5-10 for RBC or 1:1-2 for other cells, were co-incubated for 30 min at 37° C. followed by gently washing. Macrophage phagocytosis of target cells was then analyzed by fluorescence microscopy and/or by FACS. To better recognize macrophages, macrophages in wells were labeled with an anti-F4/80 or an anti-CD11b antibody. Alternatively, the freshly isolated splenocytes in suspension were incubated with CFSE-labeled RBC and other phagocytic targets for 30 min at 37° C. Macrophage phagocytosis was then determined by FACS after labeling macrophages with anti-F4/80. To test phagocytosis of apoptotic cells, B16 cells were irradiated by UV for 150 seconds at 50 J/m^2 strength. Apoptosis was analyzed at 2, 4, 6, 8 and 18 h post UV irradiation by labeling of the cells with anti-phosphatidylserine (PS) antibody (data not shown) or FITC-conjugated annexin V (data not shown). Cells that were confirmed to be apoptotic were trypsinized, labeled with CFSE, and then co-incubated with macrophages for 30 min at 37° C. After gentle washing, phagocytosis was analyzed by fluorescence microscopy and/or FACS. To test phagocytosis of bacteria and the fungal product zymosan, AlexaFluor-conjugated E.coli strain […] (2 μl suspension, ˜2 μg) or zymosan bioparticles (1 μl suspension, ˜2 μg) (both from Invitrogen) were incubated with macrophages for 30 min followed by washing and analyses. Similar procedures were performed to test phagocytosis of macrophages from various sources. […]

[4] = test system: Syk; assay: Syk phosphorylation at Y519/520 in PEMs; assay type: cell-based, mouse
Method: FIGS. 5A-5H include data related to our experiments on the role of Syk in phagocytic activation. […] PEMs were treated with LPS and cytokines in the presence of various inhibitors. After washing, inhibitor-free macrophages were tested for phagocytosis toward RBCs. […] PEMs treated with LPS and activating cytokines, or together with IL-10, were tested for total Syk and phosphorylated Syk (Syk^pY, specific at Y519/520). FIG. 5D describes PMA-induced macrophages phagocytosis toward RBCs. WT and SIRPα^−/− PEMs were treated with PMA (37° C., 30 min) before testing phagocytosis toward RBCs. FIG. 5E is a schematic depiction of PKC-Syk-mediated macrophage phagocytic activation toward self. […] Left: Inhibition of Syk by piceatannol and R406 prevented PMA-induced phagocytic activation. […] Error bars are ±SEM. ***P<0.001 vs. the respective controls. […] LPS-treated WT PEMs were further briefly treated with pervanadate before testing for phagocytosis toward RBCs. Error bars are ±SEM. ***P<0.001 vs. the respective controls. […] Data presented in each panel represent at least three independent experiments with n≥4, if applicable.
Multiple pharmacological inhibitors were tested for their effects on LPS and cytokine-induced activation of macrophage phagocytosis toward self. […] For example, inhibition of JAKs blocked IL-6 and IL-17, but not LPS and TNFα, for activation of PEM phagocytosis. […]

Molecule	peripheral hemoglobin reduction [1]	clearance of transferred CD47^+ and CD47^− RBCs [2] [%]	LPS-, IL-17-, IL-6-, TNFα-, and IL-1β-induced activation of PEM phagocytosis toward RBCs [3]	Syk phosphorylation (Syk^PY, Y519/520) [4]
dextran sodium sulfate [DSS]	40-50	~50		
B1			dose-dependently inhibited	counter-repressed Syk phosphorylation
